Structures are written as SMILES. Bridge positions count the residues as written; N and C are the ends. Square brackets hold non-standard residues; d marks the D form. Peptide text beside a SMILES is read from it. * marks the point of attachment. ξ: configuration not given here. Bip = N[C@@H](Cc1ccc(-c2ccccc2)cc1)C(=O)O; Phe(3-CN) = N#Cc1cccc(C[C@H](N)C(=O)O)c1; Phe(3-Me) = Cc1cccc(C[C@H](N)C(=O)O)c1; Val(3-OH) = CC(C)(O)[C@H](N)C(=O)O; hArg = N=C(N)NCCCC[C@H](N)C(=O)O; 3Pal = N[C@@H](Cc1cccnc1)C(=O)O; 4Pal = N[C@@H](Cc1ccncc1)C(=O)O; 3Thi = N[C@@H](Cc1ccsc1)C(=O)O; Cha = N[C@@H](CC1CCCCC1)C(=O)O; Cit = NC(=O)NCCC[C@H](N)C(=O)O; Thr(3ξ) = CC(O)[C@H](N)C(=O)O; Phg = N[C@H](C(=O)O)c1ccccc1; 12Ado = NCCCCCCCCCCCC(=O)O; dOrn = NCCC[C@@H](N)C(=O)O; Carboxymethyl = O=C(O)C*; Orn = NCCC[C@H](N)C(=O)O; Aun = NCCCCCCCCCCC(=O)O; Dab = NCC[C@H](N)C(=O)O; Dap = NC[C@H](N)C(=O)O; AEEA = NCCOCCOCC(=O)O; Piv = CC(C)(C)C(=O)*

The target in this assay is T1, PD-1/PD-L1 interaction (PE-labeled human PD-L1-Ig binding to Jurkat cell line over-expressing human PD-1) (Homo sapiens, UniProt Q15116).
T1 construct: expressed in transfected cells; host or cells: Jurkat
T1 sequence (Q15116 25-288): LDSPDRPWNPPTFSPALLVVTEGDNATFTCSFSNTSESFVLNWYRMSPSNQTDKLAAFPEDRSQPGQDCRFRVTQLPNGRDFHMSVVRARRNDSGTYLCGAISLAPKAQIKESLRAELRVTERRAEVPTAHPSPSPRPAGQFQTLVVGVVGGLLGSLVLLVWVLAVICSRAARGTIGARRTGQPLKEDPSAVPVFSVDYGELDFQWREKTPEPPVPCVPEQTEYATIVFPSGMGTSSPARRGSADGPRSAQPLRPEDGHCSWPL
The assay is described as follows: Jurkat-PD-1 Cell Binding High-Content Screening Assay (CBA). The assay is classed as cell-based. As to conditions: Jurkat cell line over-expressing human PD-1; PE-labeled PD-L1-Ig 20 nM final; read-out: Jurkat hPD1-PDL1 IC50. The gist of the method: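 Human PD-L1-Ig carrying a covalent PE label on its Ig tag serves as the probe, applied at 20 nM final to compound-treated (2 h, 37° C) Jurkat-hPD-1 cells in medium with 10% fetal calf serum. After one hour, fixation and nuclear staining precede high-content image analysis.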
As a reminder, the IC50 is the concentration needed to halve the response being measured. With `CC(=O)NCCCC[C@@H]1NC(=O)[C@H](Cc2ccc(-c3ccccc3)cc2)NC(=O)[C@H](C(C)C)NC(=O)[C@H](Cc2cccc(C)c2)NC(=O)[C@H](CC(=O)O)NC(=O)[C@H](Cc2ccc(OCC(=O)O)cc2)NC(=O)[C@H](CCCCNC(=N)N)NC(=O)CSC[C@@H](C(=O)N[C@@H](CCN)C(=O)NCCCCCCCCCCC(=O)O)NC(=O)[C@H](C(C)O)NC(=O)[C@H](C(C)C)NC(=O)[C@H](CC2CCCCC2)NC(=O)[C@H](CCN)NC(=O)[C@@H](CC(C)C)NC(=O)[C@H](CCCN)NC1=O` (stereo partly drawn) [Compound 3580] ({CH2CO}-[hArg]Y(Carboxymethyl)D[Phe(3-Me)]V[Bip]K(Ac)[Orn][dL][Dab][Cha]V[Thr(3ξ)]C[Dab][Aun]-OH; thioether N-14), the IC50 stood at 0.0168 µM.

As to `Cc1cccc(C[C@@H]2NC(=O)[C@H](CC(=O)O)NC(=O)[C@H](Cc3ccc(OCC(=O)O)cc3)NC(=O)[C@H](CN)NC(=O)CSC[C@@H](C(=O)N[C@@H](CCN)C(=O)NCCOCCOCC(=O)NCCCCCCCCCCC(=O)O)NC(=O)[C@H](CCCN)NC(=O)[C@H](C(C)C)NC(=O)[C@H](CC3CCCCC3)NC(=O)[C@H](CCN)NC(=O)[C@@H](CC(C)C)NC(=O)[C@H](CCCN)NC(=O)[C@H](Cc3ccncc3)NC(=O)[C@H](Cc3ccc(-c4ccccc4)cc3)NC(=O)[C@H](Cc3ccc(O)cc3)NC2=O)c1` [Compound 2053] ({CH2CO}-[Dap]Y(Carboxymethyl)D[Phe(3-Me)]Y[Bip][4Pal][Orn][dL][Dab][Cha]V[Orn]C[Dab][AEEA][Aun]-OH; thioether N-14), the IC50 stood at 0.0069 µM.

In the case of `Cc1cccc(C[C@@H]2NC(=O)[C@H](CC(=O)O)NC(=O)[C@H](Cc3ccc(OCC(=O)O)cc3)NC(=O)[C@H](CN)NC(=O)CSC[C@@H](C(=O)N[C@@H](CCN)C(=O)NCCCCCCCCCCC(=O)O)NC(=O)[C@H](c3ccccc3)NC(=O)[C@H](C(C)C)NC(=O)[C@H](CC3CCCCC3)NC(=O)[C@H](CCN)NC(=O)[C@@H](CC(C)C)NC(=O)[C@H](CCCN)NC(=O)[C@H](Cc3ccc(O)cc3)NC(=O)[C@H](Cc3ccc(-c4ccccc4)cc3)NC(=O)[C@H](C(C)C)NC2=O)c1` [Compound 2762] ({CH2CO}-[Dap]Y(Carboxymethyl)D[Phe(3-Me)]V[Bip]Y[Orn][dL][Dab][Cha]V[Phg]C[Dab][Aun]-OH; thioether N-14), the IC50 is 0.197 µM. In the case of `Cc1cccc(C[C@@H]2NC(=O)[C@H](CC(=O)O)NC(=O)[C@H](Cc3ccc(OCC(=O)O)cc3)NC(=O)[C@H](CN)NC(=O)CSC[C@@H](C(=O)N[C@@H](CCN)C(=O)NCCCCCCCCCCC(=O)O)NC(=O)[C@H](CCC(N)=O)NC(=O)[C@H](C(C)C)NC(=O)[C@H](CC3CCCCC3)NC(=O)[C@H](CCN)NC(=O)[C@@H](CC(C)C)NC(=O)[C@H](CCCN)NC(=O)[C@H](Cc3ccc(O)cc3)NC(=O)[C@H](Cc3ccc(-c4ccccc4)cc3)NC(=O)[C@H](Cc3ccc(O)cc3)NC2=O)c1` [Compound 2713] ({CH2CO}-[Dap]Y(Carboxymethyl)D[Phe(3-Me)]Y[Bip]Y[Orn][dL][Dab][Cha]VQC[Dab][Aun]-OH; thioether N-14), the IC50 turned out to be 0.0077 µM. Consider `Cc1cccc(C[C@@H]2NC(=O)[C@H](CC(=O)O)NC(=O)[C@H](Cc3ccc(OCC(=O)O)cc3)NC(=O)[C@H](CN)NC(=O)CSC[C@@H](C(=O)N[C@@H](CCN)C(=O)NCCOCCOCC(=O)NCCCCCCCCCCC(=O)O)NC(=O)[C@H](CCCN)NC(=O)[C@H](C(C)C)NC(=O)[C@H](CC3CCCCC3)NC(=O)[C@H](CCN)NC(=O)[C@@H](CC(C)C)NC(=O)[C@H](CCCN)NC(=O)[C@H](Cc3cccc(C#N)c3)NC(=O)[C@H](Cc3ccc(-c4ccccc4)cc3)NC(=O)[C@H](Cc3ccc(O)cc3)NC2=O)c1` [Compound 2051] ({CH2CO}-[Dap]Y(Carboxymethyl)D[Phe(3-Me)]Y[Bip][Phe(3-CN)][Orn][dL][Dab][Cha]V[Orn]C[Dab][AEEA][Aun]-OH; thioether N-14), for which the IC50 is 0.0326 µM. For the molecule `Cc1cccc(C[C@@H]2NC(=O)[C@H](CC(=O)O)NC(=O)[C@H](Cc3ccc(OCC(=O)O)cc3)NC(=O)[C@H](CCN)NC(=O)CSC[C@@H](C(=O)N[C@@H](CCCN)C(=O)N[C@@H](CN)C(=O)NCCCCCCCCCCC(=O)O)NC(=O)[C@H](CCCN)NC(=O)[C@H](C(C)C)NC(=O)[C@H](CC3CCCCC3)NC(=O)[C@H](CCN)NC(=O)[C@@H](CC(C)C)NC(=O)[C@H](CCCN)NC(=O)[C@H](Cc3ccc(O)cc3)NC(=O)[C@H](Cc3ccc(-c4ccccc4)cc3)NC(=O)[C@H](CCCCNC(=O)C(C)(C)C)NC2=O)c1` [Compound 3612] ({CH2CO}-[Dab]Y(Carboxymethyl)D[Phe(3-Me)]K(Piv)[Bip]Y[Orn][dL][Dab][Cha]V[Orn]C[Orn][Dap][Aun]-OH; thioether N-14), the half-maximal inhibitory concentration (IC50) is 0.0136 µM. Turning to `Cc1cccc(C[C@@H]2NC(=O)[C@H](CC(=O)O)NC(=O)[C@H](Cc3ccc(OCC(=O)O)cc3)NC(=O)[C@H](CCCCNC(=N)N)NC(=O)CSC[C@@H](C(=O)N[C@@H](CCN)C(=O)NCCCCCCCCCCCC(=O)O)NC(=O)[C@H](C(C)O)NC(=O)[C@H](C(C)C)NC(=O)[C@H](CC3CCCCC3)NC(=O)[C@H](CCN)NC(=O)[C@@H](CC(C)C)NC(=O)[C@H](CCCN)NC(=O)[C@H](CCCNC(N)=O)NC(=O)[C@H](Cc3ccc(-c4ccccc4)cc3)NC(=O)[C@H](C(C)C)NC2=O)c1` (stereo partly drawn) [Compound 3551] ({CH2CO}-[hArg]Y(Carboxymethyl)D[Phe(3-Me)]V[Bip][Cit][Orn][dL][Dab][Cha]V[Thr(3ξ)]C[Dab][12Ado]-OH; thioether N-14), the IC50 was 0.0334 µM. For `Cc1cccc(C[C@@H]2NC(=O)[C@H](CC(=O)O)NC(=O)[C@H](Cc3ccc(OCC(=O)O)cc3)NC(=O)[C@H](CCCCNC(=N)N)NC(=O)CSC[C@@H](C(=O)N[C@@H](CCN)C(=O)NCCCCCCCCCCC(=O)O)NC(=O)[C@H](CCCN)NC(=O)[C@H](C(C)C)NC(=O)[C@H](CC3CCCCC3)NC(=O)[C@H](CCN)NC(=O)[C@@H](CC(C)C)NC(=O)[C@H](CCN)NC(=O)[C@H](CCC(N)=O)NC(=O)[C@H](Cc3ccc(-c4ccccc4)cc3)NC(=O)[C@H](C(C)C)NC2=O)c1` [Compound 3359] ({CH2CO}-[hArg]Y(Carboxymethyl)D[Phe(3-Me)]V[Bip]Q[Dab][dL][Dab][Cha]V[Orn]C[Dab][Aun]-OH; thioether N-14) the value was 0.0043 µM; for `Cc1cccc(C[C@@H]2NC(=O)[C@H](CC(=O)O)NC(=O)[C@H](Cc3ccc(OCC(=O)O)cc3)NC(=O)[C@H](Cc3cccnc3)NC(=O)CSC[C@@H](C(=O)N[C@@H](CCN)C(=O)NCCCCCCCCCCC(=O)O)NC(=O)[C@H](CO)NC(=O)[C@H](C(C)C)NC(=O)[C@H](CC3CCCCC3)NC(=O)[C@H](CCN)NC(=O)[C@@H](CC(C)C)NC(=O)[C@H](CCCN)NC(=O)[C@H](Cc3ccc(OCC(=O)O)cc3)NC(=O)[C@H](Cc3ccc(-c4ccccc4)cc3)NC(=O)[C@H](C(C)(C)O)NC2=O)c1` [Compound 2149] ({CH2CO}-[3Pal]Y(Carboxymethyl)D[Phe(3-Me)][Val(3-OH)][Bip]Y(Carboxymethyl)[Orn][dL][Dab][Cha]VSC[Dab][Aun]-OH; thioether N-14), 0.0551 µM; for `Cc1cccc(C[C@@H]2NC(=O)[C@H](CC(=O)O)NC(=O)[C@H](Cc3ccc(OCC(=O)O)cc3)NC(=O)[C@H](CCCNC(=N)N)NC(=O)CSC[C@@H](C(=O)N[C@@H](CCN)C(=O)NCCCCCCCCCCC(=O)O)NC(=O)[C@H](Cc3ccsc3)NC(=O)[C@H](C(C)C)NC(=O)[C@H](CC3CCCCC3)NC(=O)[C@H](CCN)NC(=O)[C@@H](CC(C)C)NC(=O)[C@H](CCCN)NC(=O)[C@H](Cc3ccc(OCC(=O)O)cc3)NC(=O)[C@H](Cc3ccc(-c4ccccc4)cc3)NC(=O)[C@H](Cc3ccc(OCC(=O)O)cc3)NC2=O)c1` [Compound 3545] ({CH2CO}-RY(Carboxymethyl)D[Phe(3-Me)]Y(Carboxymethyl)[Bip]Y(Carboxymethyl)[Orn][dL][Dab][Cha]V[3Thi]C[Dab][Aun]-OH; thioether N-14), 0.155 µM. As for `CC(C)C[C@H]1NC(=O)[C@H](CCCN)NC(=O)[C@H](Cc2ccc(O)cc2)NC(=O)[C@H](Cc2ccc(-c3ccccc3)cc2)NC(=O)[C@H](C(C)C)NC(=O)[C@H](Cc2c[nH]c3ccccc23)NC(=O)[C@H](CC(=O)O)NC(=O)[C@H](Cc2ccc(OCC(=O)O)cc2)NC(=O)[C@H]([C@@H](C)O)NC(=O)CSC[C@@H](C(=O)N[C@@H](CCN)C(=O)NCCCCCCCCCCC(=O)O)NC(=O)[C@H](CCCNC(N)=O)NC(=O)[C@H](C(C)C)NC(=O)[C@H](CC2CCCCC2)NC(=O)[C@H](CCN)NC1=O` [Compound 2729] ({CH2CO}-TY(Carboxymethyl)DWV[Bip]Y[Orn][dL][Dab][Cha]V[Cit]C[Dab][Aun]-OH; thioether N-14), the IC50 turned out to be 0.0129 µM.

`CC(=O)NCCCC[C@@H]1NC(=O)[C@H](Cc2ccc(-c3ccccc3)cc2)NC(=O)[C@H](C(C)C)NC(=O)[C@H](Cc2cccc(C)c2)NC(=O)[C@H](CC(=O)O)NC(=O)[C@H](Cc2ccc(OCC(=O)O)cc2)NC(=O)[C@H](CCCNC(=N)N)NC(=O)CSC[C@@H](C(=O)N[C@H](CCCN)C(=O)NCCCCCCCCCCC(=O)O)NC(=O)[C@H](C(C)O)NC(=O)[C@H](C(C)C)NC(=O)[C@H](CC2CCCCC2)NC(=O)[C@H](CCN)NC(=O)[C@@H](CC(C)C)NC(=O)[C@H](CCCN)NC1=O` (stereo partly drawn) [Compound 3559] ({CH2CO}-RY(Carboxymethyl)D[Phe(3-Me)]V[Bip]K(Ac)[Orn][dL][Dab][Cha]V[Thr(3ξ)]C[dOrn][Aun]-OH; thioether N-14): the IC50 stood at 0.0141 µM. For `Cc1cccc(C[C@@H]2NC(=O)[C@H](CC(=O)O)NC(=O)[C@H](Cc3ccc(OCC(=O)O)cc3)NC(=O)[C@H](CN)NC(=O)CSC[C@@H](C(=O)N[C@@H](CCN)C(=O)NCCCCCCCCCCC(=O)O)NC(=O)[C@H](CN)NC(=O)[C@H](C(C)C)NC(=O)[C@H](CC3CCCCC3)NC(=O)[C@H](CCN)NC(=O)[C@@H](CC(C)C)NC(=O)[C@H](CCCN)NC(=O)[C@H](C(C)C)NC(=O)[C@H](Cc3ccc(-c4ccccc4)cc3)NC(=O)[C@H](C(C)C)NC2=O)c1` [Compound 2558] ({CH2CO}-[Dap]Y(Carboxymethyl)D[Phe(3-Me)]V[Bip]V[Orn][dL][Dab][Cha]V[Dap]C[Dab][Aun]-OH; thioether N-14), the IC50 is 0.0107 µM.

The record behind these values is patent US20260022142A1, “MACROCYCLIC IMMUNOMODULATORS” (Bristol-Myers Squibb Company, priority 2022, published 2026).
